Laboratory results published in US11208405B2, “Pyrrole derivatives as PLK1 inhibitors” (SENTINEL ONCOLOGY LIMITED, priority 2017, dated 2021).
Counter-ions that a name gives are not always drawn.

What was measured:
AAK1 = molecular target: T1, AAK1 (Homo sapiens, UniProt Q2M2I8); test: Kinase selectivity assay (DiscoverX KinomeScreen), AAK1; type: binding; details: AAK1, 5 μM; read-out: % Control
T1 construct: purchased DiscoverX
Method: (§1) The compound of Example 33 was tested for off-target activity against a panel of fifty five kinases bearing functional or structural similarity to PLK1 at a concentration of 5 μM using the DiscoverX KinomeScreen assay.

CAMKK2 = molecular target: T2, CAMKK2 (Homo sapiens, UniProt Q96RR4); test: Kinase selectivity assay (DiscoverX KinomeScreen), CAMKK2; type: binding; details: CAMKK2, 5 μM; read-out: % Control
T2 construct: purchased DiscoverX
Method: as §1

wild-type HeLa cell line = test: Wild-type versus KRAS HeLa cell viability: wild-type KRAS transgene; type: cell-based; details: Homo sapiens; HeLa cells expressing wild-type KRAS, 72 hours; read-out: WT GI50
Method: Assay to Measure the Effects of Compounds of the Invention on Wild-Type Versus KRAS HeLa Cell Viability
Identifying synthetic lethal interactions between targeted small molecule therapies and characterised oncogenic mutations is a goal of modern oncology drug discovery efforts. To this end, PLK1-PBD inhibitors were tested on HeLa cells engineered to inducibly express wild-type or oncogenic KrasG12V transgenes using the FLP-in/T-Rex system (Invitrogen). Cells were plated, and then treated with or without Doxycycline to induce transgene expression, and then treated with serially-diluted PBD inhibitors. After 72 hours of incubation, cell viability was assessed using the Cell Titre Blue reagent (Promega) and a BMG Pherastar plate reader. The effect of PBD inhibition on cell viability with either wild-type or oncogenic G12V KRAS was assessed using the graphing/curve-fitting packages in GraphPad Prism.

SBK1 = molecular target: T3, SBK1 (Homo sapiens, UniProt Q52WX2); test: Kinase selectivity assay (DiscoverX KinomeScreen), SBK1; type: binding; details: SBK1, 5 μM; read-out: % Control
T3 construct: purchased DiscoverX
Method: as §1

WEE1 = molecular target: T4, WEE1 (Homo sapiens, UniProt P30291); test: Kinase selectivity assay (DiscoverX KinomeScreen), WEE1; type: binding; details: WEE1, 5 μM; read-out: % Control
T4 construct: purchased DiscoverX
Method: as §1

SgK110 = molecular target: T5, SgK110 (Homo sapiens, UniProt P0C264); test: Kinase selectivity assay (DiscoverX KinomeScreen), SgK110; type: binding; details: SgK110, 5 μM; read-out: % Control
T5 construct: purchased DiscoverX
T5 sequence (P0C264 whole entry): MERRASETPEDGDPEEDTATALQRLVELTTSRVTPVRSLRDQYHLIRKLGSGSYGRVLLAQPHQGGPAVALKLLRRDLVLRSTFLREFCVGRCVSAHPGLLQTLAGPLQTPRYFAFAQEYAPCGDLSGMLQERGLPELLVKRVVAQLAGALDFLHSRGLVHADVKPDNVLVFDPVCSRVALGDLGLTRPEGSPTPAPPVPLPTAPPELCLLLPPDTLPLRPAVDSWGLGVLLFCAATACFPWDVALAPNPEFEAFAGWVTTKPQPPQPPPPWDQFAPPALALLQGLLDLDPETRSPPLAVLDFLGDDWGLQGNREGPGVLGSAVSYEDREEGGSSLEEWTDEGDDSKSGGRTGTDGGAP
Method: as §1

DSTYK = molecular target: T6, DSTYK (Homo sapiens, UniProt Q6XUX3); test: Kinase selectivity assay (DiscoverX KinomeScreen), DSTYK; type: binding; details: read-out: % Control
T6 construct: purchased DiscoverX
Method: as §1

HeLa cells = test: Arresting cells in mitosis (Mitotic Index, phosphorylated Histone H3 immunofluorescence); type: cell-based; details: Homo sapiens, HeLa; separate experiment; read-out: EC50 in the mitotic arrest assay
Summary of the method: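 HeLa cells exposed 24 h to 2-fold serial compound dilutions, in triplicate, then formaldehyde-fixed and immunostained for phospho-histone H3 and MPM2 with Hoechst counterstain. High-content imaging gave the mitotic index (% pH3-positive cells); EC50 fitted from MI versus concentration.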

CSNK2A2 = molecular target: T7, CSNK2A2 (Homo sapiens, UniProt P19784); test: Kinase selectivity assay (DiscoverX KinomeScreen), CSNK2A2; type: binding; details: CSNK2A2, 5 μM; read-out: % Control
T7 construct: purchased DiscoverX
T7 sequence (P19784 whole entry): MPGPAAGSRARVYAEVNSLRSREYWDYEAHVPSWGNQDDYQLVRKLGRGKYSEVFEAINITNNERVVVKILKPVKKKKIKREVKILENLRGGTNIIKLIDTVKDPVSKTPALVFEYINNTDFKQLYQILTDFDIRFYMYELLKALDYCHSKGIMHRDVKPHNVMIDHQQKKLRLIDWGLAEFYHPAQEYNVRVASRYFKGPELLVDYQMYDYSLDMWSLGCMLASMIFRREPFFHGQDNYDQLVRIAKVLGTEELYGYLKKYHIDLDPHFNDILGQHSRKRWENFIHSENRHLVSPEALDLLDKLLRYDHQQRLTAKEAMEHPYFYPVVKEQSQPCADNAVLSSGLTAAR
Method: as §1

NEK7 = molecular target: T8, NEK7 (Homo sapiens, UniProt Q8TDX7); test: Kinase selectivity assay (DiscoverX KinomeScreen), NEK7; type: binding; details: NEK7, 5 μM; read-out: % Control
T8 construct: purchased DiscoverX
Method: as §1

ULK2 = molecular target: T9, ULK2 (Homo sapiens, UniProt Q8IYT8); test: Kinase selectivity assay (DiscoverX KinomeScreen), ULK2; type: binding; details: ULK2, 5 μM; read-out: % Control
T9 construct: purchased DiscoverX
Method: as §1

ERN1 = molecular target: T10, ERN1 (Homo sapiens, UniProt O75460); test: Kinase selectivity assay (DiscoverX KinomeScreen), ERN1; type: binding; details: ERN1, 5 μM; read-out: % Control
T10 construct: purchased DiscoverX
Method: as §1

[1] = system: glioblastoma cell line 1240170; test: Glioblastoma cancer cell viability, cell line 1240170; type: cell-based
Method: Assay to Measure the Effects of Compounds of the Invention on Glioblastoma Cancer Cell Viability
The compound of Example 33 was tested for inhibitory activity against the glioblastoma cell lines in Table 7 below.

TLK2 = molecular target: T11, TLK2 (Homo sapiens, UniProt Q86UE8); test: Kinase selectivity assay (DiscoverX KinomeScreen), TLK2; type: binding; details: TLK2, 5 μM; read-out: % Control
T11 construct: purchased DiscoverX
Method: as §1

TTK = molecular target: T12, TTK (Homo sapiens, UniProt P33981); test: Kinase selectivity assay (DiscoverX KinomeScreen), TTK; type: binding; details: read-out: % Control
T12 construct: purchased DiscoverX
T12 sequence (P33981 whole entry): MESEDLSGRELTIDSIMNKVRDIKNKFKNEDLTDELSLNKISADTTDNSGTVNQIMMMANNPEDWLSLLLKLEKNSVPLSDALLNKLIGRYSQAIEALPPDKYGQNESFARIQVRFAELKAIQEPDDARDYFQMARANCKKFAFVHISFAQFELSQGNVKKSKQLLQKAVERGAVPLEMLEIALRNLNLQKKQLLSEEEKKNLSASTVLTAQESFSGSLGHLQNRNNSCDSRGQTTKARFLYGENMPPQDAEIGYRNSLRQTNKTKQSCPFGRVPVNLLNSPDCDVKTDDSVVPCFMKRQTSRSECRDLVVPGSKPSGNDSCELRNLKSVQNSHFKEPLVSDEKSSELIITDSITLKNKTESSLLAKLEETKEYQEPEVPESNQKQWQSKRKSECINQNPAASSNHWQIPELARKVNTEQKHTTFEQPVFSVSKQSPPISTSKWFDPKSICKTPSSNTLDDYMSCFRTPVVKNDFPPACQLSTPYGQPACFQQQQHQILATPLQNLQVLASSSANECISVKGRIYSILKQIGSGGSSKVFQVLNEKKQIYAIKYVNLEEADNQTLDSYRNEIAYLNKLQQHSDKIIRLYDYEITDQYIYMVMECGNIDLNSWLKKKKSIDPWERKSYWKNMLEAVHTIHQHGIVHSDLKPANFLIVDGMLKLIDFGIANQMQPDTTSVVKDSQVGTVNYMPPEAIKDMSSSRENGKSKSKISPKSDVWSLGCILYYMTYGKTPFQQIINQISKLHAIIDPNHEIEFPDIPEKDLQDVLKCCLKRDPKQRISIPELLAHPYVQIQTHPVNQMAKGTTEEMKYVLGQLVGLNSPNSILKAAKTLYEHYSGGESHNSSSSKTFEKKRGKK
Method: as §1

NEK9 = molecular target: T13, NEK9 (Homo sapiens, UniProt Q8TD19); test: Kinase selectivity assay (DiscoverX KinomeScreen), NEK9; type: binding; details: NEK9, 5 μM; read-out: % Control
T13 construct: purchased DiscoverX
T13 sequence (Q8TD19 whole entry): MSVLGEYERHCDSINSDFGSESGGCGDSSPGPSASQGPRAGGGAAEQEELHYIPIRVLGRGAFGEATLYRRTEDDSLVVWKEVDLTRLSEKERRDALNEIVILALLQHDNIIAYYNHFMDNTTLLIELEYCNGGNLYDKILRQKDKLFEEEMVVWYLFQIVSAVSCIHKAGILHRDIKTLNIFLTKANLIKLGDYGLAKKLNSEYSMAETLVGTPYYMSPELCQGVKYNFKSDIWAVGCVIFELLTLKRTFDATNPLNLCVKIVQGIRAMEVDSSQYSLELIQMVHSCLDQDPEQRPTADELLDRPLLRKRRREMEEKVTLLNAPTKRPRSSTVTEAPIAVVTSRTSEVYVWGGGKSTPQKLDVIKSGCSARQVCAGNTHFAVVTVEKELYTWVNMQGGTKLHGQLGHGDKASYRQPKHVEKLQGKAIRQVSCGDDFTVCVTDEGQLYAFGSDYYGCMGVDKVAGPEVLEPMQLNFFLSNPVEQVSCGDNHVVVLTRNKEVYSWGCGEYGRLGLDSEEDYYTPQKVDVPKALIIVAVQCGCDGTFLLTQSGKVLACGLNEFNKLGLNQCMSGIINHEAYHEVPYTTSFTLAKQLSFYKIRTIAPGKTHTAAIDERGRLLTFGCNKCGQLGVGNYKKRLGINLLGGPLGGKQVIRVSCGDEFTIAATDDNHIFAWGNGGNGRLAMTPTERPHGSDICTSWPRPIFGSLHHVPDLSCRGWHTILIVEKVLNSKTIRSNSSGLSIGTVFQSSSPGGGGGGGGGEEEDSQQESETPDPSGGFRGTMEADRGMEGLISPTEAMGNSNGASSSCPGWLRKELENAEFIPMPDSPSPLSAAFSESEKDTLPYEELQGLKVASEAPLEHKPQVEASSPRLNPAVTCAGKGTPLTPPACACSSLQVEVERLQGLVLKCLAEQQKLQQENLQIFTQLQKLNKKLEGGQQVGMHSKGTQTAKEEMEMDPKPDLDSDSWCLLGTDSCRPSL
Method: as §1

GAK = molecular target: T14, GAK (Homo sapiens, UniProt O14976); test: Kinase selectivity assay (DiscoverX KinomeScreen), GAK; type: binding; details: read-out: % Control
T14 construct: purchased DiscoverX
T14 sequence (O14976 whole entry): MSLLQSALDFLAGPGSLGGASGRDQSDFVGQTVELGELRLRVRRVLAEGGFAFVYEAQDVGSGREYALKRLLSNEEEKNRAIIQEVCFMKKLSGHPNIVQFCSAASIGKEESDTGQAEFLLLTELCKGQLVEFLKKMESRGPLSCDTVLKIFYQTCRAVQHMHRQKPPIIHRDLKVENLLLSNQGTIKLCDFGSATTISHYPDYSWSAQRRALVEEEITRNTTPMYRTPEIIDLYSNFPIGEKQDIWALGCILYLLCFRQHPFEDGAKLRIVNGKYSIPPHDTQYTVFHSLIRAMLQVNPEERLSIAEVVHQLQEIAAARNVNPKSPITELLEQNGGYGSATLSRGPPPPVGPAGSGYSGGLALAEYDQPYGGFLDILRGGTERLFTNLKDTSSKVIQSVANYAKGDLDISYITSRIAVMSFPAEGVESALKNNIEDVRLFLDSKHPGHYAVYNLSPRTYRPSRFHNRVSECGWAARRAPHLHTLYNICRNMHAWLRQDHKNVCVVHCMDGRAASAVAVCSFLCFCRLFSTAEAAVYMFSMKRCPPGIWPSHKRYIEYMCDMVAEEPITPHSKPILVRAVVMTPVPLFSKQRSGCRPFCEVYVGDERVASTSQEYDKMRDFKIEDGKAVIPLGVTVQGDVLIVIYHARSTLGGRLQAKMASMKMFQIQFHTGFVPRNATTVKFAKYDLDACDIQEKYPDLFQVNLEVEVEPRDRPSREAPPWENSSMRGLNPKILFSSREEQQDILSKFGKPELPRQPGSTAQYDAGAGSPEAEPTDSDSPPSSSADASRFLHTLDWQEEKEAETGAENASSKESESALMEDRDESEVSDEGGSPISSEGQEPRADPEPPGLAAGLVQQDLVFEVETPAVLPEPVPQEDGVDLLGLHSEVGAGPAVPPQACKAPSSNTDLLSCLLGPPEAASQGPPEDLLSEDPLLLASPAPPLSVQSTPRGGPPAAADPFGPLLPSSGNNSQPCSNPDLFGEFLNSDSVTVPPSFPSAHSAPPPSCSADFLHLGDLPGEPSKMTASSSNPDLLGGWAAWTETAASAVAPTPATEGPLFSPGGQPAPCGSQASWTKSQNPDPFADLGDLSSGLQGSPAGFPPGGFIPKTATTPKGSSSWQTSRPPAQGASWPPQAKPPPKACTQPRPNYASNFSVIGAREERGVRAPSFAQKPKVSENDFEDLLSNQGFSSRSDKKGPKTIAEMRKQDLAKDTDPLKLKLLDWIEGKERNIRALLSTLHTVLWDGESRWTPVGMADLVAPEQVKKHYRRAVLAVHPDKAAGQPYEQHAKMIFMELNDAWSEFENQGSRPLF
Method: as §1

T1 sequence (Q2M2I8 whole entry): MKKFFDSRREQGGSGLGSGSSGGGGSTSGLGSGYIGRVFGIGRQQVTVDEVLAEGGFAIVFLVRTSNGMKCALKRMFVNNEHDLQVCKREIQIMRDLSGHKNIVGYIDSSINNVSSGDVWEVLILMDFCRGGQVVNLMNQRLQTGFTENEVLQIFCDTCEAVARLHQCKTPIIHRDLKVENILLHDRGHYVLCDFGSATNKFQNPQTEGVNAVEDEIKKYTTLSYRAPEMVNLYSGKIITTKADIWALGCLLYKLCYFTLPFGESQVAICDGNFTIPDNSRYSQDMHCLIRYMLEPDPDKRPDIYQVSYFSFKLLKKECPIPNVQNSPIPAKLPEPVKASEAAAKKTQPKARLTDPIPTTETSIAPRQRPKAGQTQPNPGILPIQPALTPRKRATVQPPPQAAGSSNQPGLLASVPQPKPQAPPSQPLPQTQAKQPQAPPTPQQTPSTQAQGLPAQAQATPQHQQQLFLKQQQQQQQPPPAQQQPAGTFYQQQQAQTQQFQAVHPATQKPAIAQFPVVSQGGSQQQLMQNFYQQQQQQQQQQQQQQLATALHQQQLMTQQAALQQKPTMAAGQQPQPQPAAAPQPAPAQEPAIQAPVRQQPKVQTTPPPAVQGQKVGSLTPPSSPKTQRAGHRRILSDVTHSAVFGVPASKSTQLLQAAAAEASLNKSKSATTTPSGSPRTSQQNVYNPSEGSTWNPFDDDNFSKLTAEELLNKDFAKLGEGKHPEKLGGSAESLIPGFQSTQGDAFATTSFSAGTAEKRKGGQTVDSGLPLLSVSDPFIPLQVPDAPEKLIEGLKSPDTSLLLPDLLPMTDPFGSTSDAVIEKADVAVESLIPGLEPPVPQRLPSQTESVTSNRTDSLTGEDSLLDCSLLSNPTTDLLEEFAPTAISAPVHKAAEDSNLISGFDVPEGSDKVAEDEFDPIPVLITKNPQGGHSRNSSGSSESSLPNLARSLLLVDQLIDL

CN(C)CCNC(=O)c1ccc(-c2ccc(-c3ccc(Cl)cc3)n2-c2ccccc2C(F)(F)F)cc1 [Example 33, 4-[5-(4-chlorophenyl)-1-[2-(trifluoromethyl)phenyl]pyrrol-2-yl]-N-[2-(dimethylamino)ethyl]benzamide Hydrochloride]
remaining activity at 5 µM (AAK1): 100% | remaining activity at 5 µM (CAMKK2): 97% | GI50 (wild-type HeLa cell line): 20 nM | remaining activity at 5 µM (SBK1): 61% | remaining activity at 5 µM (WEE1): 98% | remaining activity at 5 µM (SgK110): 100% | remaining activity at 5 µM (DSTYK): 75% | EC50 (HeLa cells): 61 ± 10 nM | remaining activity at 5 µM (CSNK2A2): 92% | remaining activity at 5 µM (NEK7): 79% | remaining activity at 5 µM (ULK2): 100% | remaining activity at 5 µM (ERN1): 74% | IC50 [1]: 363 nM | remaining activity at 5 µM (TLK2): 94% | remaining activity at 5 µM (TTK): 83% | remaining activity at 5 µM (NEK9): 92% | remaining activity at 5 µM (GAK): 100%
